Data published in patent publication US11000033B2, “Ketone or oxime compound, and herbicide” (NISSAN CHEMICAL CORPORATION, priority 2014, dated 2021).

Key:
Assay type in all cases: in vivo
Leptochloa chinensis = assay: Test Example 3: herbicidal effect by foliage application, Wagner pot (symbol D); conditions: application herbicide amount 320 g/ha
Outline: (§1)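 Scoring took place 3 weeks after application, using fixed criteria. Plants had been raised from seed for 14 days at 25 to 30 °C in submerged alluvial soil before a diluted emulsion of the test compound was sprayed uniformly on the leaves.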

Avena fatua = assay: Test Example 5: herbicidal effect by foliage application, plastic box (symbol I); conditions: 320 g/ha, 3 weeks after application
Outline: (§2)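 Greenhouse foliar test: seedlings at 14 days, grown 25° C. to 30° C. in sterilized diluvial soil; compound applied as an aqueous dilution of an emulsion; response read 3 weeks after spraying.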

Setaria viridis [1] = assay: Test Example 5: herbicidal effect by foliage application, plastic box (symbol G); conditions: 320 g/ha, 3 weeks after application
Outline: as §2

Digitaria ciliaris [2] = assay: Test Example 4: herbicidal effect by soil treatment (symbol F); conditions: application herbicide amount 320 g/ha
Outline: (§3)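 Seeds were sown in sterilized diluvial soil, covered with about 1.5 cm of soil, and the soil surface was sprayed with a water-diluted emulsion of the compound at a predetermined rate. Plants grew in a greenhouse at 25° C. to 30° C.; effects were scored visually 3 weeks after application.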

Scirpus juncoides = assay: Test Example 1: herbicidal activity, application before weed generation in submerged conditions (symbol B); conditions: application herbicide amount 320 g/ha
Outline: (§4)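 Mixed weed seeds sown in alluvial soil under 4 cm of water, with rice seedlings at the 2.5-leaf stage added. Same-day treatment: emulsion diluted to a set herbicide amount onto the water. Three weeks at 25–30 °C, then graded on a six-step scale.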

[3] = tested on: Echinochloa crus-galli var. crus-galli; assay: Test Example 4: herbicidal effect by soil treatment (symbol H); conditions: application herbicide amount 320 g/ha
Outline: as §3

[4] = tested on: Echinochloa oryzacola Vasing.; assay: Test Example 1: herbicidal activity, application before weed generation in submerged conditions (symbol A); conditions: application herbicide amount 320 g/ha
Outline: as §4

beet = assay: Test Example 4: effect on crop by soil treatment (symbol f); conditions: application herbicide amount 320 g/ha
Outline: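 Sterilized diluvial soil, spot sowing, ~1.5 cm soil cover; greenhouse 25–30° C.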

Setaria viridis [5] = assay: Test Example 4: herbicidal effect by soil treatment (symbol G); conditions: application herbicide amount 320 g/ha
Outline: as §3

Digitaria ciliaris [6] = assay: Test Example 5: herbicidal effect by foliage application, plastic box (symbol F); conditions: 320 g/ha, 3 weeks after application
Outline: as §2

Cyperus difformis = assay: Test Example 3: herbicidal effect by foliage application, Wagner pot (symbol E); conditions: application herbicide amount 320 g/ha
Outline: as §1

Monochoria vaginalis = assay: Test Example 2: herbicidal activity, application during weed generation in submerged conditions (symbol C); conditions: Table 23; application herbicide amount 320 g/ha; grade 0-5 by criteria of Test Example 1
Outline: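 Read-out: herbicidal effect on each species rated on a visual scale 3 weeks after treatment. Plants were raised together from seed in flooded alluvial soil (4 cm water) at 25° C. to 30° C. and treated at one to two leaves by water-surface application of diluted emulsion.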

Veronica persica = assay: Test Example 4: herbicidal effect by soil treatment (symbol R); conditions: application herbicide amount 320 g/ha
Outline: as §3

Stellaria media = assay: Test Example 5: herbicidal effect by foliage application, plastic box (symbol P); conditions: 320 g/ha, 3 weeks after application
Outline: as §2

Question: Which “herbicidal effect on D (Leptochloa chinensis), grade 0-5” value (“herbicidal effect on D” for short) (Leptochloa chinensis) does the source give for `CON=C(C)CC1CC(OC(=O)N2CCOCC2)=C(c2c(C)cc(-c3ccc(Cl)cc3)cc2OC)C1=O` (stereo not shown) [6-078, 2-(4′-chloro-3-methoxy-5-methyl-[1,1′-biphenyl]-4-yl)-4-{2-(methoxyimino)propyl}-3-oxocyclopent-1-ene-1-yl morpholine-4-carboxylate] here?
Answer: 5 (Herbicidal ratio of 90% or more (almost completely withered))

Question: What about the “I: Avena fatua, herbicidal effect (criteria of Test Example 1)” value (“I: Avena fatua, herbicidal effect” below) (Avena fatua) of the same molecule?
Answer: 5 (Herbicidal ratio of 90% or more (almost completely withered))

Question: And the “G: Setaria viridis, herbicidal effect (criteria of Test Example 1)” value (Setaria viridis [1])?
Answer: 5 (Herbicidal ratio of 90% or more (almost completely withered))

Question: What about the “F: Digitaria ciliaris, herbicidal effect grade” value (Digitaria ciliaris [2]) of the same molecule?
Answer: 5 (Herbicidal ratio of 90% or more (almost completely withered))

Question: And the “Herbicidal effect grade, B: Scirpus juncoides” value (“Herbicidal effect grade, B” for short) (Scirpus juncoides)?
Answer: 5 (Herbicidal ratio of 90% or more (almost completely withered))

Question: What about the “H: Echinochloa crus-galli var. crus-galli, herbicidal effect grade” value [3] of the same molecule?
Answer: 0 (Herbicidal ratio of 5% or lower (almost no effect))

Question: And the “Herbicidal effect grade, A: Echinochloa oryzacola Vasing.” value [4]?
Answer: 5 (Herbicidal ratio of 90% or more (almost completely withered))

Question: And the “f: beet, effect on crop grade” value (beet)?
Answer: 0 (Herbicidal ratio of 5% or lower (almost no effect))

Question: What about the “G: Setaria viridis, herbicidal effect grade” value (Setaria viridis [5]) of the same molecule?
Answer: 5 (Herbicidal ratio of 90% or more (almost completely withered))

Question: And the “F: Digitaria ciliaris, herbicidal effect (criteria of Test Example 1)” value (Digitaria ciliaris [6])?
Answer: 5 (Herbicidal ratio of 90% or more (almost completely withered))

Question: What about the “herbicidal effect on E, grade 0-5” value (Cyperus difformis) of the same molecule?
Answer: 0 (Herbicidal ratio of 5% or lower (almost no effect))

Question: And the “Herbicidal effect grade, C: Monochoria vaginalis” value (“Herbicidal effect grade, C” for short) (Monochoria vaginalis)?
Answer: 3 (Herbicidal ratio of 40% or higher and lower than 70%)

Question: And the “R: Veronica persica, herbicidal effect grade” value (“R: Veronica persica” below) (Veronica persica)?
Answer: 0 (Herbicidal ratio of 5% or lower (almost no effect))

Question: And the “P: Stellaria media, herbicidal effect (criteria of Test Example 1)” value (shortened to “P: Stellaria media, herbicidal effect”) (Stellaria media)?
Answer: 3 (Herbicidal ratio of 40% or higher and lower than 70%)

Question: Which “herbicidal effect on D” value (Leptochloa chinensis) does the source give for `CON=C(C)CC1CC(OC(=O)COc2ccccc2)=C(c2c(C)cc(-c3ccc(Cl)cc3)cc2OC)C1=O` (stereo not shown) [6-079] here?
Answer: 5 (Herbicidal ratio of 90% or more (almost completely withered))

Question: What about the “I: Avena fatua, herbicidal effect” value (Avena fatua) of the same molecule?
Answer: 5 (Herbicidal ratio of 90% or more (almost completely withered))

Question: What about the “G: Setaria viridis, herbicidal effect (criteria of Test Example 1)” value (Setaria viridis [1]) of the same molecule?
Answer: 5 (Herbicidal ratio of 90% or more (almost completely withered))

Question: What about the “F: Digitaria ciliaris, herbicidal effect grade” value (Digitaria ciliaris [2]) of the same molecule?
Answer: 5 (Herbicidal ratio of 90% or more (almost completely withered))

Question: What about the “Herbicidal effect grade, B” value (Scirpus juncoides) of the same molecule?
Answer: 0 (Herbicidal ratio of 5% or lower (almost no effect))

Question: And the “H: Echinochloa crus-galli var. crus-galli, herbicidal effect grade” value [3]?
Answer: 5 (Herbicidal ratio of 90% or more (almost completely withered))

Question: What about the “Herbicidal effect grade, A: Echinochloa oryzacola Vasing.” value [4] of the same molecule?
Answer: 4 (Herbicidal ratio of 70% or higher and lower than 90%)

Question: What about the “f: beet, effect on crop grade” value (beet) of the same molecule?
Answer: 0 (Herbicidal ratio of 5% or lower (almost no effect))

Question: What about the “G: Setaria viridis, herbicidal effect grade” value (Setaria viridis [5]) of the same molecule?
Answer: 5 (Herbicidal ratio of 90% or more (almost completely withered))

Question: What about the “F: Digitaria ciliaris, herbicidal effect (criteria of Test Example 1)” value (Digitaria ciliaris [6]) of the same molecule?
Answer: 5 (Herbicidal ratio of 90% or more (almost completely withered))

Question: And the “herbicidal effect on E, grade 0-5” value (Cyperus difformis)?
Answer: 4 (Herbicidal ratio of 70% or higher and lower than 90%)

Question: And the “Herbicidal effect grade, C” value (Monochoria vaginalis)?
Answer: 3 (Herbicidal ratio of 40% or higher and lower than 70%)

Question: What about the “R: Veronica persica” value (Veronica persica) of the same molecule?
Answer: 3 (Herbicidal ratio of 40% or higher and lower than 70%)

Question: And the “P: Stellaria media, herbicidal effect” value (Stellaria media)?
Answer: 3 (Herbicidal ratio of 40% or higher and lower than 70%)

Question: Which results are given for `CON=C(C)CC1CC(OC(=O)CCCC(C)=O)=C(c2c(C)cc(-c3ccc(Cl)cc3)cc2C)C1=O` (stereo not shown) [6-080]?
Answer: herbicidal effect on D (Leptochloa chinensis), grade 0-5 (Leptochloa chinensis): 5 (Herbicidal ratio of 90% or more (almost completely withered)); I: Avena fatua, herbicidal effect (criteria of Test Example 1) (Avena fatua): 5 (Herbicidal ratio of 90% or more (almost completely withered)); G: Setaria viridis, herbicidal effect (criteria of Test Example 1) (Setaria viridis [1]): 5 (Herbicidal ratio of 90% or more (almost completely withered)); F: Digitaria ciliaris, herbicidal effect grade (Digitaria ciliaris [2]): 5 (Herbicidal ratio of 90% or more (almost completely withered)); Herbicidal effect grade, B: Scirpus juncoides (Scirpus juncoides): 1 (Herbicidal ratio of 5% or higher and lower than 20%); H: Echinochloa crus-galli var. crus-galli, herbicidal effect grade [3]: 5 (Herbicidal ratio of 90% or more (almost completely withered)); Herbicidal effect grade, A: Echinochloa oryzacola Vasing. [4]: 5 (Herbicidal ratio of 90% or more (almost completely withered)); f: beet, effect on crop grade (beet): 0 (Herbicidal ratio of 5% or lower (almost no effect)); G: Setaria viridis, herbicidal effect grade (Setaria viridis [5]): 5 (Herbicidal ratio of 90% or more (almost completely withered)); F: Digitaria ciliaris, herbicidal effect (criteria of Test Example 1) (Digitaria ciliaris [6]): 5 (Herbicidal ratio of 90% or more (almost completely withered)); herbicidal effect on E, grade 0-5 (Cyperus difformis): 5 (Herbicidal ratio of 90% or more (almost completely withered)); Herbicidal effect grade, C: Monochoria vaginalis (Monochoria vaginalis): 3 (Herbicidal ratio of 40% or higher and lower than 70%); R: Veronica persica, herbicidal effect grade (Veronica persica): 0 (Herbicidal ratio of 5% or lower (almost no effect)); P: Stellaria media, herbicidal effect (criteria of Test Example 1) (Stellaria media): 0 (Herbicidal ratio of 5% or lower (almost no effect))

Question: How did the “herbicidal effect on D” value (Leptochloa chinensis) turn out when `CON=C(C)CC1CC(OC(=O)SC(C)(C)C)=C(c2c(C)cc(-c3ccc(Cl)cc3)cc2C)C1=O` (stereo not shown) [6-082] was run?
Answer: 5 (Herbicidal ratio of 90% or more (almost completely withered))

Question: And the “I: Avena fatua, herbicidal effect” value (Avena fatua)?
Answer: 5 (Herbicidal ratio of 90% or more (almost completely withered))

Question: And the “G: Setaria viridis, herbicidal effect (criteria of Test Example 1)” value (Setaria viridis [1])?
Answer: 5 (Herbicidal ratio of 90% or more (almost completely withered))

Question: What about the “F: Digitaria ciliaris, herbicidal effect grade” value (Digitaria ciliaris [2]) of the same molecule?
Answer: 5 (Herbicidal ratio of 90% or more (almost completely withered))

Question: And the “Herbicidal effect grade, B” value (Scirpus juncoides)?
Answer: 4 (Herbicidal ratio of 70% or higher and lower than 90%)

Question: And the “H: Echinochloa crus-galli var. crus-galli, herbicidal effect grade” value [3]?
Answer: 5 (Herbicidal ratio of 90% or more (almost completely withered))

Question: What about the “Herbicidal effect grade, A: Echinochloa oryzacola Vasing.” value [4] of the same molecule?
Answer: 5 (Herbicidal ratio of 90% or more (almost completely withered))

Question: What about the “f: beet, effect on crop grade” value (beet) of the same molecule?
Answer: 0 (Herbicidal ratio of 5% or lower (almost no effect))

Question: What about the “G: Setaria viridis, herbicidal effect grade” value (Setaria viridis [5]) of the same molecule?
Answer: 5 (Herbicidal ratio of 90% or more (almost completely withered))

Question: And the “F: Digitaria ciliaris, herbicidal effect (criteria of Test Example 1)” value (Digitaria ciliaris [6])?
Answer: 5 (Herbicidal ratio of 90% or more (almost completely withered))

Question: And the “herbicidal effect on E, grade 0-5” value (Cyperus difformis)?
Answer: 5 (Herbicidal ratio of 90% or more (almost completely withered))

Question: And the “Herbicidal effect grade, C” value (Monochoria vaginalis)?
Answer: 5 (Herbicidal ratio of 90% or more (almost completely withered))

Question: And the “R: Veronica persica” value (Veronica persica)?
Answer: 3 (Herbicidal ratio of 40% or higher and lower than 70%)

Question: And the “P: Stellaria media, herbicidal effect” value (Stellaria media)?
Answer: 1 (Herbicidal ratio of 5% or higher and lower than 20%)

Question: Which “herbicidal effect on D” value (Leptochloa chinensis) does the source give for `CON=C(C)CC1CC(OCOC(=O)c2ccccc2)=C(c2c(C)cc(-c3ccc(Cl)cc3)cc2C)C1=O` (stereo not shown) [6-083] here?
Answer: 5 (Herbicidal ratio of 90% or more (almost completely withered))

Question: What about the “I: Avena fatua, herbicidal effect” value (Avena fatua) of the same molecule?
Answer: 5 (Herbicidal ratio of 90% or more (almost completely withered))

Question: And the “G: Setaria viridis, herbicidal effect (criteria of Test Example 1)” value (Setaria viridis [1])?
Answer: 5 (Herbicidal ratio of 90% or more (almost completely withered))

Question: What about the “F: Digitaria ciliaris, herbicidal effect grade” value (Digitaria ciliaris [2]) of the same molecule?
Answer: 5 (Herbicidal ratio of 90% or more (almost completely withered))

Question: And the “Herbicidal effect grade, B” value (Scirpus juncoides)?
Answer: 4 (Herbicidal ratio of 70% or higher and lower than 90%)

Question: What about the “H: Echinochloa crus-galli var. crus-galli, herbicidal effect grade” value [3] of the same molecule?
Answer: 0 (Herbicidal ratio of 5% or lower (almost no effect))

Question: What about the “Herbicidal effect grade, A: Echinochloa oryzacola Vasing.” value [4] of the same molecule?
Answer: 5 (Herbicidal ratio of 90% or more (almost completely withered))

Question: What about the “f: beet, effect on crop grade” value (beet) of the same molecule?
Answer: 0 (Herbicidal ratio of 5% or lower (almost no effect))

Question: What about the “G: Setaria viridis, herbicidal effect grade” value (Setaria viridis [5]) of the same molecule?
Answer: 5 (Herbicidal ratio of 90% or more (almost completely withered))

Question: What about the “F: Digitaria ciliaris, herbicidal effect (criteria of Test Example 1)” value (Digitaria ciliaris [6]) of the same molecule?
Answer: 5 (Herbicidal ratio of 90% or more (almost completely withered))

Question: And the “herbicidal effect on E, grade 0-5” value (Cyperus difformis)?
Answer: 5 (Herbicidal ratio of 90% or more (almost completely withered))

Question: What about the “Herbicidal effect grade, C” value (Monochoria vaginalis) of the same molecule?
Answer: 4 (Herbicidal ratio of 70% or higher and lower than 90%)

Question: And the “R: Veronica persica” value (Veronica persica)?
Answer: 3 (Herbicidal ratio of 40% or higher and lower than 70%)

Question: What about the “P: Stellaria media, herbicidal effect” value (Stellaria media) of the same molecule?
Answer: 1 (Herbicidal ratio of 5% or higher and lower than 20%)
